Measured values published in publication PMC5392334, “Discovery and characterization of a novel irreversible EGFR mutants selective and potent kinase inhibitor CHMFL-EGFR-26 with a distinct binding mode” (Oncotarget, 2017).

Columns and labels:
MYLK2 = molecular target: T1, MYLK2 (Homo sapiens, UniProt Q9H1R3); experiment: KinomeScan; format: binding; settings: read-out: % control
T1 construct: purchased DiscoveRx KINOMEscan

ADCK4 = molecular target: T2, ADCK4 (Homo sapiens, UniProt Q96D53); experiment: KinomeScan; format: binding; settings: read-out: % control
T2 construct: purchased DiscoveRx KINOMEscan

CSF1R = molecular target: T3, CSF1R (Homo sapiens, UniProt P07333); experiment: KinomeScan; format: binding; settings: read-out: % control
T3 construct: purchased DiscoveRx KINOMEscan

ITK = molecular target: T4, ITK (Homo sapiens, UniProt Q08881); experiment: KinomeScan; format: binding; settings: read-out: % control
T4 construct: purchased DiscoveRx KINOMEscan

IKK-beta = molecular target: T5, IKK-beta (Homo sapiens, UniProt O14920); experiment: KinomeScan; format: binding; settings: read-out: % control
T5 construct: purchased DiscoveRx KINOMEscan

ALK(L1196M) = molecular target: T6, ALK(L1196M) (Homo sapiens, UniProt Q9UM73, L1196M); experiment: KinomeScan; format: binding; settings: read-out: % control
T6 construct: purchased DiscoveRx KINOMEscan

BMPR1A = molecular target: T7, BMPR1A (Homo sapiens, UniProt P36894); experiment: KinomeScan; format: binding; settings: read-out: % control
T7 construct: purchased DiscoveRx KINOMEscan

BaF3-FL-EGFR-del19-T790M = experiment: Anti-proliferation, BaF3 isogenic cell lines (CellTiter-Glo); format: cell-based; settings: Mus musculus, 72 hours, triplet testing
MST4 = molecular target: T8, MST4 (Homo sapiens, UniProt Q9P289); experiment: KinomeScan; format: binding; settings: read-out: % control
T8 construct: purchased DiscoveRx KINOMEscan

QSK = molecular target: T9, QSK (Homo sapiens, UniProt Q9Y2K2); experiment: KinomeScan; format: binding; settings: read-out: % control
T9 construct: purchased DiscoveRx KINOMEscan

LZK = molecular target: T10, LZK (Homo sapiens, UniProt O43283); experiment: KinomeScan; format: binding; settings: read-out: % control
T10 construct: purchased DiscoveRx KINOMEscan

[1] = tested on: p70S6K and eIF4E phosphorylations in H3255 cells; experiment: Signaling pathway examination (immunoblotting); format: cell-based, human; settings: 30 nM, 4 hours
Source text: (§1) We next examined the effects of CHMFL-EGFR-26 on EGFR mediated signaling pathways in NSCLC cell lines with different EGFR mutants. […] As expected, in the EGFR wt expressing NCSCL cell lines A549 and H1355, only autophosphorylation of EGFR was affected and none of the downstream mediators was inhibited.
(§2) Cells were then collected and lysed. Phospho-EGF Receptor, Phospho-EGF Receptor (Tyr1068), Stat3, Phospho-Stat3 (Tyr705), AKT, Phospho-AKT (Ser473), Phospho-AKT (Thr308), p44/42 MAPK (Erk1/2), Phospho-p44/42 MAPK (Erk1/2) (Thr202/ Tyr204), p70 S6 Kinase, Phospho-p70 S6 Kinase (Thr389), eIF4E, Phospho-eIF4E (Ser209), 4E-BP1, Phospho-4E-BP1 (Thr37/46) antibody (Cell Signaling Technology) were used for immunoblotting.

[2] = tested on: autophosphorylation of EGFR Y1068 in H1975 cell line; experiment: Signaling pathway examination (immunoblotting); format: cell-based, human; settings: 10 nM, 4 hours
Source text: as §1, §2

CDK5 = molecular target: T11, CDK5 (Homo sapiens, UniProt Q00535); experiment: KinomeScan; format: binding; settings: read-out: % control
T11 construct: purchased DiscoveRx KINOMEscan

BRK = molecular target: T12, BRK (Homo sapiens, UniProt Q13882); experiment: KinomeScan; format: binding; settings: read-out: % control
T12 construct: purchased DiscoveRx KINOMEscan

GSK3B = molecular target: T13, GSK3B (Homo sapiens, UniProt P49841); experiment: KinomeScan; format: binding; settings: read-out: % control
T13 construct: purchased DiscoveRx KINOMEscan

LKB1 = molecular target: T14, LKB1 (Homo sapiens, UniProt Q15831); experiment: KinomeScan; format: binding; settings: read-out: % control
T14 construct: purchased DiscoveRx KINOMEscan

[3] = tested on: BaF3-TEL-EGFR-L858R-C797S; experiment: Anti-proliferation, BaF3 isogenic cell lines (CellTiter-Glo); format: cell-based; settings: Mus musculus, 72 hours, triplet testing
ANKK1 = molecular target: T15, ANKK1 (Homo sapiens, UniProt Q8NFD2); experiment: KinomeScan; format: binding; settings: read-out: % control
T15 construct: purchased DiscoveRx KINOMEscan

MAP4K3 = molecular target: T16, MAP4K3 (Homo sapiens, UniProt Q8IVH8); experiment: KinomeScan; format: binding; settings: read-out: % control
T16 construct: purchased DiscoveRx KINOMEscan

LRRK2(G2019S) = molecular target: T17, LRRK2(G2019S) (Homo sapiens, UniProt Q5S007, G2019S); experiment: KinomeScan; format: binding; settings: read-out: % control
T17 construct: purchased DiscoveRx KINOMEscan

HUNK = molecular target: T18, HUNK (Homo sapiens, UniProt P57058); experiment: KinomeScan; format: binding; settings: read-out: % control
T18 construct: purchased DiscoveRx KINOMEscan

TYRO3 = molecular target: T19, TYRO3 (Homo sapiens, UniProt Q06418); experiment: KinomeScan; format: binding; settings: read-out: % control
T19 construct: purchased DiscoveRx KINOMEscan

BIKE = molecular target: T20, BIKE (Homo sapiens, UniProt Q9NSY1); experiment: KinomeScan; format: binding; settings: read-out: % control
T20 construct: purchased DiscoveRx KINOMEscan

ERK3 = molecular target: T21, ERK3 (Homo sapiens, UniProt Q16659); experiment: KinomeScan; format: binding; settings: read-out: % control
T21 construct: purchased DiscoveRx KINOMEscan

PIP5K2B = molecular target: T22, PIP5K2B (Homo sapiens, UniProt P78356); experiment: KinomeScan; format: binding; settings: read-out: % control
T22 construct: purchased DiscoveRx KINOMEscan

CSNK1E = molecular target: T23, CSNK1E (Homo sapiens, UniProt P49674); experiment: KinomeScan; format: binding; settings: read-out: % control
T23 construct: purchased DiscoveRx KINOMEscan

CAMKK1 = molecular target: T24, CAMKK1 (Homo sapiens, UniProt Q8N5S9); experiment: KinomeScan; format: binding; settings: read-out: % control
T24 construct: purchased DiscoveRx KINOMEscan

PKAC-alpha = molecular target: T25, PKAC-alpha (Homo sapiens, UniProt P17612); experiment: KinomeScan; format: binding; settings: read-out: % control
T25 construct: purchased DiscoveRx KINOMEscan

CSNK2A1 = molecular target: T26, CSNK2A1 (Homo sapiens, UniProt P68400); experiment: KinomeScan; format: binding; settings: read-out: % control
T26 construct: purchased DiscoveRx KINOMEscan

HCK = molecular target: T27, HCK (Homo sapiens, UniProt P08631); experiment: KinomeScan; format: binding; settings: read-out: % control
T27 construct: purchased DiscoveRx KINOMEscan

JNK1 = molecular target: T28, JNK1 (Homo sapiens, UniProt P45983); experiment: KinomeScan; format: binding; settings: read-out: % control
T28 construct: purchased DiscoveRx KINOMEscan

CAMK2B = molecular target: T29, CAMK2B (Homo sapiens, UniProt Q13554); experiment: KinomeScan; format: binding; settings: read-out: % control
T29 construct: purchased DiscoveRx KINOMEscan

CDK11 = molecular target: T30, CDK11 (Homo sapiens, UniProt Q9BWU1); experiment: KinomeScan; format: binding; settings: read-out: % control
T30 construct: purchased DiscoveRx KINOMEscan

MEK3 = molecular target: T31, MEK3 (Homo sapiens, UniProt P46734); experiment: KinomeScan; format: binding; settings: read-out: % control
T31 construct: purchased DiscoveRx KINOMEscan

RIPK4 = molecular target: T32, RIPK4 (Homo sapiens, UniProt P57078); experiment: KinomeScan; format: binding; settings: read-out: % control
T32 construct: purchased DiscoveRx KINOMEscan

LTK = molecular target: T33, LTK (Homo sapiens, UniProt P29376); experiment: KinomeScan; format: binding; settings: read-out: % control
T33 construct: purchased DiscoveRx KINOMEscan

STK36 = molecular target: T34, STK36 (Homo sapiens, UniProt Q9NRP7); experiment: KinomeScan; format: binding; settings: read-out: % control
T34 construct: purchased DiscoveRx KINOMEscan

T18 sequence (P57058 whole entry): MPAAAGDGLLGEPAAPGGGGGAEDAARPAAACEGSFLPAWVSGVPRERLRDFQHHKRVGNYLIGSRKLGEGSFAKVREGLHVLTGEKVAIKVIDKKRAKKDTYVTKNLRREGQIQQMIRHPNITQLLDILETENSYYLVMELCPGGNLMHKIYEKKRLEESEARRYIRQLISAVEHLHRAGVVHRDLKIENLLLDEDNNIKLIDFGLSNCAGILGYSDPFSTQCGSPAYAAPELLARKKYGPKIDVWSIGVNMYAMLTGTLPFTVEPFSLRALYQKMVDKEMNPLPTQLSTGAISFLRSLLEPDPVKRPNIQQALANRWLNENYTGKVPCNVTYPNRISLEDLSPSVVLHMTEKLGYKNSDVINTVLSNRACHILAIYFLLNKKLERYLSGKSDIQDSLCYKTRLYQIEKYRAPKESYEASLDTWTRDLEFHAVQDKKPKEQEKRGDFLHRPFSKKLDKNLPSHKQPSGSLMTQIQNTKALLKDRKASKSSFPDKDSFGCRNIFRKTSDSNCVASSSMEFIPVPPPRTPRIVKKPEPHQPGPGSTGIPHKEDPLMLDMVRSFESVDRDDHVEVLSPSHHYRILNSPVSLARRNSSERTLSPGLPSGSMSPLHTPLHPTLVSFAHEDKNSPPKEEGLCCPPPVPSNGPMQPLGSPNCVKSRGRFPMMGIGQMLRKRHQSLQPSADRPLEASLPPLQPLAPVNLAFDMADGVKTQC
T31 sequence (P46734 whole entry): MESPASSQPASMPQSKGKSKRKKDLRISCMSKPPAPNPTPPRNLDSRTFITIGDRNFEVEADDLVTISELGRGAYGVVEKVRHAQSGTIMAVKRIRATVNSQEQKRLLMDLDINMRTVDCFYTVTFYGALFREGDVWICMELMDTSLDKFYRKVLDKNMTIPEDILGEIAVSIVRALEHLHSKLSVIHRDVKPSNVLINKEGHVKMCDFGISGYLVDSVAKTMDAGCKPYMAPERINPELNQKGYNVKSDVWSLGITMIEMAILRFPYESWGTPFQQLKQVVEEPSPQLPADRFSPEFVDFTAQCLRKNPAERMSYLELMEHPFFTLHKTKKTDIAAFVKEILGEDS
T12 sequence (Q13882 whole entry): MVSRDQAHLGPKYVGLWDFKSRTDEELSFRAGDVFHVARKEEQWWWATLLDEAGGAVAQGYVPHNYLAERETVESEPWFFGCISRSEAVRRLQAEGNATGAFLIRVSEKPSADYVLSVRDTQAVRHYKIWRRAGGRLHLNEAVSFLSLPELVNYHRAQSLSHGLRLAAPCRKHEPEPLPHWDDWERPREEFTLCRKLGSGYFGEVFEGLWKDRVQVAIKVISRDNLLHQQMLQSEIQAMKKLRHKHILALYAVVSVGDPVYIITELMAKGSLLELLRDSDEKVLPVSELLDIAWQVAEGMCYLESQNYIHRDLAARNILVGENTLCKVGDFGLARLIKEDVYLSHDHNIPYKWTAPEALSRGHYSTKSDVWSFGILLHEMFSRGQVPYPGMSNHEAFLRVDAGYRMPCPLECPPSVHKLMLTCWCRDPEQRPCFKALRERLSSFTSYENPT
T26 sequence (P68400 whole entry): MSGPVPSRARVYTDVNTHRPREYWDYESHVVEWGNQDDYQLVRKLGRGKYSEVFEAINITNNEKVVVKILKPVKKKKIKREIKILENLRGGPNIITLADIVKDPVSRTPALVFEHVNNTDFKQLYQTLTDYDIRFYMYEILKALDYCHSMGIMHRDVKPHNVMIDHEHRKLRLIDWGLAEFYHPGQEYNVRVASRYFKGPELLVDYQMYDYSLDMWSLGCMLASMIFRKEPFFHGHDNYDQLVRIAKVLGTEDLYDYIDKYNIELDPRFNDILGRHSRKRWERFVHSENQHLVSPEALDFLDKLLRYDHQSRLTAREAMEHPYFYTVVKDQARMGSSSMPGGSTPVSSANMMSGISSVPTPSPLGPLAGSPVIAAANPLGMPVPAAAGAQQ
T16 sequence (Q8IVH8 whole entry): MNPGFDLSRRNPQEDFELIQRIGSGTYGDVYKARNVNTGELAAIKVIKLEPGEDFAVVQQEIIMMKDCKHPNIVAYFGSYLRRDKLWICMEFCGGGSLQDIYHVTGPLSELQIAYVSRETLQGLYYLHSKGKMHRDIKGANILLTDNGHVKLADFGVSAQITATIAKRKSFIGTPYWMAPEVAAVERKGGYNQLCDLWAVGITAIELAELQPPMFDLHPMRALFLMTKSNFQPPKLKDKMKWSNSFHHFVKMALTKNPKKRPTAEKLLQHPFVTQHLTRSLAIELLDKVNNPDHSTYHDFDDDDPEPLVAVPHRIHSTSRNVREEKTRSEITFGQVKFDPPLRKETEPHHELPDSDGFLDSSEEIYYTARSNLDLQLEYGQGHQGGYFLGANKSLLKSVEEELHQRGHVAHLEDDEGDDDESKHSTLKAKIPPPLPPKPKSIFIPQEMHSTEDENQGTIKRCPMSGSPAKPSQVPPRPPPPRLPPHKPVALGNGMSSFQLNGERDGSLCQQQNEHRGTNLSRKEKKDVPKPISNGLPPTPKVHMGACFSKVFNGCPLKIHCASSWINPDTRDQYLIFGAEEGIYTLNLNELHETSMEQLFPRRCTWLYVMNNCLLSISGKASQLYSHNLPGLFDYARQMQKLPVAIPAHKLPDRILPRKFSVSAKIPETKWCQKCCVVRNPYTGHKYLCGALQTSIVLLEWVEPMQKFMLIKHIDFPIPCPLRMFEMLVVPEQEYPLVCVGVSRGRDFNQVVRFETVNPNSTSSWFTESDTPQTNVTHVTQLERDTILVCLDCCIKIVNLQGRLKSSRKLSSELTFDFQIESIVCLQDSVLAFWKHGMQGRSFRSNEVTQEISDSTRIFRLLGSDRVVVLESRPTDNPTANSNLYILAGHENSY
T5 sequence (O14920 whole entry): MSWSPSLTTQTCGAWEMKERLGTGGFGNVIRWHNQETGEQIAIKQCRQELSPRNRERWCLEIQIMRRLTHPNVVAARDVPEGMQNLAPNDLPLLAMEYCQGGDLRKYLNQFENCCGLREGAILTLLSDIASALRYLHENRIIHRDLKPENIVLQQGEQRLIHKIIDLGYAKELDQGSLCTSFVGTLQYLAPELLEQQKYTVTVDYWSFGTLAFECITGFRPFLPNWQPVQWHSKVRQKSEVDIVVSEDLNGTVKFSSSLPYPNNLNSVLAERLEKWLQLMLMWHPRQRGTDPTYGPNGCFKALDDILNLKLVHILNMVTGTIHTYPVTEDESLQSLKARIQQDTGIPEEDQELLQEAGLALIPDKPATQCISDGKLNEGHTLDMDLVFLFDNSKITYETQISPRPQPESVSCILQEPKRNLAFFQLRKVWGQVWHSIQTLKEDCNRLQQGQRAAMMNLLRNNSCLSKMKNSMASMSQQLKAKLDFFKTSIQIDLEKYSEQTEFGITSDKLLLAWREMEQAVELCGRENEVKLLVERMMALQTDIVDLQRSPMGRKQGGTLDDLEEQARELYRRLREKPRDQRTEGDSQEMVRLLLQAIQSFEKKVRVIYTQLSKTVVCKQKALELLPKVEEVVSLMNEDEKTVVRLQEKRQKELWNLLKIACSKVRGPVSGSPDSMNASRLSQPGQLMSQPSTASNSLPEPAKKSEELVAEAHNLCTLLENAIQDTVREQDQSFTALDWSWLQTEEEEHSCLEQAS
T11 sequence (Q00535 whole entry): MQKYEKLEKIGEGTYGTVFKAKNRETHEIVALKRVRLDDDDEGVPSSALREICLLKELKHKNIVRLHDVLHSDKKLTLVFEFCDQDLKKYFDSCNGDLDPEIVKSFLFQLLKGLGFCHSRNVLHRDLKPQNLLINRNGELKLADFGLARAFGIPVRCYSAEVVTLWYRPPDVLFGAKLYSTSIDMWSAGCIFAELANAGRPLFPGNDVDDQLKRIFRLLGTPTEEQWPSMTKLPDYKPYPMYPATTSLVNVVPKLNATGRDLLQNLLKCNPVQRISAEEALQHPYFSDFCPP
T32 sequence (P57078 whole entry): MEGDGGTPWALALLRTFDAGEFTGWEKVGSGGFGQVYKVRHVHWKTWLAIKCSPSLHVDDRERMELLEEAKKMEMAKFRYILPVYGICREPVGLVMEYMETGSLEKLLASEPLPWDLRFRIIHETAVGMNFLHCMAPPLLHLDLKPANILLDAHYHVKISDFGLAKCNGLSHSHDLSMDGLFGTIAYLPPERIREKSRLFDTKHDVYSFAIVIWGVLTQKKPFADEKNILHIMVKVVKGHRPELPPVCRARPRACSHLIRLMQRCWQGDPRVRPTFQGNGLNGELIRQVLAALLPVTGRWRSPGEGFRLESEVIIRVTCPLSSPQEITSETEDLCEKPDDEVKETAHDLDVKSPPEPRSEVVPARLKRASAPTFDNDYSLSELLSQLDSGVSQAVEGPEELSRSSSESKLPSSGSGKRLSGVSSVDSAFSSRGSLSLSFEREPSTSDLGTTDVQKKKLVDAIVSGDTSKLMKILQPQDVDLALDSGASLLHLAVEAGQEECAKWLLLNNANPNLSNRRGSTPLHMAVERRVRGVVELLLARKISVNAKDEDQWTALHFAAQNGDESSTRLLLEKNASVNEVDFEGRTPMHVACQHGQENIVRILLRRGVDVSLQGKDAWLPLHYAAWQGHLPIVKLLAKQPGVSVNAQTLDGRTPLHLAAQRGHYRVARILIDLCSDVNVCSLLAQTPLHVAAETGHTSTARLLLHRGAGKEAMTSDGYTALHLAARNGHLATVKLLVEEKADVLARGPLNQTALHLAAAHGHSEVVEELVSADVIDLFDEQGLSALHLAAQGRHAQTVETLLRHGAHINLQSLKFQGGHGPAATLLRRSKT

In the case of C=CC(=O)N1CCC[C@@H](n2nc(-c3ccc(OCc4cccc(C)n4)c(Cl)c3)c3c(N)ncnc32)C1 [CHMFL-EGFR-26], the remaining binding at 1 µM (MYLK2) is reported as 100%, the remaining binding at 1 µM (ADCK4) is reported as 100% and the remaining binding at 1 µM (CSF1R) is reported as 98%. It also gave a remaining binding at 1 µM (ITK) of 96%, a remaining binding at 1 µM (IKK-beta) of 98% and a remaining binding at 1 µM (ALK(L1196M)) of 100%. It also gave a remaining binding at 1 µM (BMPR1A) of 100%, a GI50 (BaF3-FL-EGFR-del19-T790M) of less than 0.0003 µM and a remaining binding at 1 µM (MST4) of 99%. For the same molecule, the remaining binding at 1 µM (QSK) was 71%, the remaining binding at 1 µM (LZK) was 86% and the “mTOR-p70S6K and eIF4E phosphorylations” value [1] was “completely blocked”. For the same molecule, the “autophosphorylation of EGFR Y1068” value [2] was “almost completely suppress”, the remaining binding at 1 µM (CDK5) was 100% and the remaining binding at 1 µM (BRK) was 26%. It also gave a remaining binding at 1 µM (GSK3B) of 97%, a remaining binding at 1 µM (LKB1) of 79% and a GI50 [3] of 3.2 µM. It also gave a remaining binding at 1 µM (ANKK1) of 94%, a remaining binding at 1 µM (MAP4K3) of 97% and a remaining binding at 1 µM (LRRK2(G2019S)) of 100%. For the same molecule, the remaining binding at 1 µM (HUNK) was 72%, the remaining binding at 1 µM (TYRO3) was 53% and the remaining binding at 1 µM (BIKE) was 96%. The remaining binding at 1 µM (ERK3) was 100%, the remaining binding at 1 µM (PIP5K2B) was 100% and the remaining binding at 1 µM (CSNK1E) was 9.1%. For the same molecule, the remaining binding at 1 µM (CAMKK1) was 88%, the remaining binding at 1 µM (PKAC-alpha) was 100% and the remaining binding at 1 µM (CSNK2A1) was 100%. For the same molecule, the remaining binding at 1 µM (HCK) was 44%, the remaining binding at 1 µM (JNK1) was 76% and the remaining binding at 1 µM (CAMK2B) was 97%. The remaining binding at 1 µM (CDK11) was 100%, the remaining binding at 1 µM (MEK3) was 98% and the remaining binding at 1 µM (RIPK4) was 96%. For the same molecule, the remaining binding at 1 µM (LTK) was 94% and the remaining binding at 1 µM (STK36) was 92%.
